Results published in ChEMBL document CHEMBL5523692, “Discovery of novel biaryl benzoxazepinones as dual-mode receptor-interacting protein kinase-1 (RIPK1) inhibitors” (Bioorg Med Chem, 2024).
The source made the active and inactive calls. The rule behind the calls is not given here.

Legend:
HT-29 [1] = experiment: Anti-necroptic activity against human HT-29 cells assessed as cell viability pretreated with compound followed by TNF-alpha/Smac mimetic/Z-VAD-FMK stimulation for 16 hrs by Cell Titer Glo assay; assay type: functional, cell-based
[2] = Cytotoxicity against human HT-29 cells by Cell Titer Glo assay; assay type: toxicity, cell-based
L-292 = experiment: Anti-necroptic activity against mouse […] cells assessed as cell viability pretreated with compound followed by TNF-alpha/Z-VAD-FMK stimulation for 12 hrs by Cell Titer Glo assay; assay type: functional, cell-based; conditions: dose 0.078-10 µM
[3] = biological target: T1, Receptor-interacting serine/threonine-protein kinase 1 (Homo sapiens) (UniProt Q13546); experiment: Inhibition of RIPK1 in human HT-29 cells assessed as decrease in RIPK3 phosphorylation at 10 nM preincubated for 6 hrs followed by TSZ stimulation by Western blot analysis relative to control; assay type: cell-based
T1 sequence (whole entry): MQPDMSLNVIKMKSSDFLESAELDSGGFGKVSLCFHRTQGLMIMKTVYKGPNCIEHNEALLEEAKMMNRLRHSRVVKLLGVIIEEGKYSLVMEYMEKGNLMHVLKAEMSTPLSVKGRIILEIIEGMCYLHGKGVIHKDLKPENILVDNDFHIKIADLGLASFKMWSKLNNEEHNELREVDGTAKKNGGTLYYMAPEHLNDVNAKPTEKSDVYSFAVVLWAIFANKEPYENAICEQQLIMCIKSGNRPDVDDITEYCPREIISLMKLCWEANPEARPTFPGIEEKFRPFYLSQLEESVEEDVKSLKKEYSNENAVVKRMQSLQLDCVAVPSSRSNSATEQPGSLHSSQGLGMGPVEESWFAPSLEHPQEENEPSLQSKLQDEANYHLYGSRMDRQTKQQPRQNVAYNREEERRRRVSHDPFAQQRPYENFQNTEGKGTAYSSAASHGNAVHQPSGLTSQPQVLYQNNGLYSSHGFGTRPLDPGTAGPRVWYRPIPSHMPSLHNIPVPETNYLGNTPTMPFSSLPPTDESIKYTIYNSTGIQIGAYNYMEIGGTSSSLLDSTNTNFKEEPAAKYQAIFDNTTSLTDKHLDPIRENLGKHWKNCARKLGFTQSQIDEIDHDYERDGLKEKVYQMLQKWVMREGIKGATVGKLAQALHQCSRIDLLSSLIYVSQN

Mus musculus [4] = experiment: (§1) Anti-necroptic activity in TNF-alpha/Z-VAD-FMK-induced SIRS C57BL/6J mouse model assessed as survival rate at 2.5 mg/kg, po pre-administered via gavage for 1 hr followed by […] of Z-VAD-FMK stimulation for 15 mins and subsequent TNF-alpha stimulation for 45 mins and re-current […] of Z-VAD-FMK stimulation measured after 4 hrs post- TNF-alpha stimulation relative to control; assay type: functional; conditions: 6 h, time 360 min
[5] = biological target: T1, Receptor-interacting serine/threonine-protein kinase 1 (Homo sapiens); experiment: Inhibition of RIPK1 in human HT-29 cells assessed as decrease in MLKL phosphorylation at 10 nM preincubated for 6 hrs followed by TSZ stimulation by Western blot analysis relative to control; assay type: cell-based
[6] = biological target: T1, Receptor-interacting serine/threonine-protein kinase 1 (Homo sapiens); experiment: Inhibition of RIPK1 phosphorylation in human HT-29 cells preincubated for 6 hrs followed by TSZ stimulation by Western blot analysis; assay type: cell-based; conditions: dose 1-10 nM
HT-29 [7] = experiment: Anti-necroptic activity against human HT-29 cells assessed as cell viability pretreated with compound followed by TNF-alpha/Smac mimetic/Z-VAD-FMK stimulation for 12 hrs by Cell Titer Glo assay; assay type: functional, cell-based; conditions: dose 0.39-50 nM
Mus musculus [8] = experiment: as §1, with “decrease in serum IL-1beta level” for “survival rate”, “2.5 to 10” for “2.5”, “by ELISA” for “relative to control”; assay type: functional, organism-based; conditions: dose 2.5-10 mg/kg, time 360.0 min
HT-29 [9] = experiment: Anti-necroptic activity against human HT-29 cells assessed as cell viability pretreated with compound followed by TNF-alpha/Cycloheximide/Z-VAD-FMK stimulation for 16 hrs by Cell Titer Glo assay; assay type: functional, cell-based; conditions: dose 0.39-50 nM
HT-29 [10] = experiment: Anti-necroptic activity against human HT-29 cells assessed as cell viability upto 10 uM pretreated with compound followed by TNF-alpha/Cycloheximide stimulation for 36 hrs by Cell Titer Glo assay; assay type: functional, cell-based
Mus musculus [11] = experiment: as §1, with “10” for “2.5”; assay type: functional; conditions: 6 h, time 360 min
[12] = biological target: T1, Receptor-interacting serine/threonine-protein kinase 1 (Homo sapiens); experiment: Inhibition of RIPK1 in human HT-29 cells assessed as decrease in MLKL phosphorylation preincubated for 6 hrs followed by TSZ stimulation by Western blot analysis relative to control; assay type: cell-based; conditions: dose 1-10 nM
[13] = biological target: T1, Receptor-interacting serine/threonine-protein kinase 1 (Homo sapiens); experiment: Inhibition of RIPK1 phosphorylation in human HT-29 cells assessed as decrease in necrosomes development at 10 nM incubated for 6 hrs by Western blot analysis; assay type: cell-based
Mus musculus [14] = experiment: as §1, with “5” for “2.5”; assay type: functional; conditions: 6 h, time 360 min
Mus musculus [15] = experiment: as §1, with “as decrease in hypothermia” for “as survival rate”, “2.5 to 10” for “2.5”, “after 2 to 3” for “after 4”, “stimulation” for “stimulation relative to control”; assay type: functional, organism-based; conditions: dose 2.5-10 mg/kg, time 240-300 min
[16] = biological target: T1, Receptor-interacting serine/threonine-protein kinase 1 (Homo sapiens); experiment: Inhibition of RIPK1 in human HT-29 cells assessed as decrease in RIPK3 phosphorylation preincubated for 6 hrs followed by TSZ stimulation by Western blot analysis; assay type: cell-based; conditions: dose 1-10 nM
Mus musculus [17] = experiment: as §1, with “decrease in serum IL-6 level” for “survival rate”, “2.5 to 10” for “2.5”, “by ELISA” for “relative to control”; assay type: functional, organism-based; conditions: dose 2.5-10 mg/kg, time 360.0 min
HT-29 [18] = experiment: Anti-necroptic activity against human HT-29 cells assessed as cell viability upto 10 uM pretreated with compound followed by TNF-alpha/Smac mimetic stimulation for 24 hrs by Cell Titer Glo assay; assay type: functional, cell-based
[19] = biological target: T1, Receptor-interacting serine/threonine-protein kinase 1 (Homo sapiens); experiment: Inhibition of RIPK1 phosphorylation in human HT-29 cells at 10 nM preincubated for 6 hrs followed by TSZ stimulation by Western blot analysis relative to control; assay type: cell-based

Row | Compound | EC50 (HT-29 [1]) [nM] | CC50 [2] [µM] | other results
1 | CN1C(=O)[C@@H](NC(=O)c2n[nH]c(Cc3ccccc3)n2)COc2ccc(-c3ccccc3Cl)cc21 | 20.3 | > 100 | –
2 | CN1C(=O)[C@@H](NC(=O)c2n[nH]c(Cc3ccccc3)n2)COc2ccc(-c3cccc(F)c3)cc21 | 8.8 | > 100 | –
3 | CN1C(=O)[C@@H](NC(=O)c2n[nH]c(Cc3ccccc3)n2)COc2ccc(-c3ccc(C#N)cc3)cc21 | 1.7 | > 100 | Activity (L-292): Dose-Dependent Effect; inhibition [3]: 100%; survival at 2.5 mg/kg (Mus musculus [4]): 66%; inhibition [5]: 100%; inhibition [6]: Dose-Dependent Effect; Activity (HT-29 [7]): Dose-Dependent Effect; Activity (Mus musculus [8]): Active; Activity (HT-29 [9]): Dose-Dependent Effect; Activity (HT-29 [10]): inactive; survival at 10 mg/kg (Mus musculus [11]): 100%; inhibition [12]: Dose-Dependent Effect; inhibition [13]: Active; survival at 5 mg/kg (Mus musculus [14]): 91%; Activity (Mus musculus [15]): Active; inhibition [16]: Dose-Dependent Effect; Activity (Mus musculus [17]): Active; Activity (HT-29 [18]): inactive; inhibition [19]: 100%
4 | CN1C(=O)[C@@H](NC(=O)c2n[nH]c(Cc3ccccc3)n2)COc2ccc(-c3cccc(Cl)c3)cc21 | 56.8 | > 100 | –
5 | CN1C(=O)[C@@H](NC(=O)c2n[nH]c(Cc3ccccc3)n2)COc2ccc(-c3ccc(Cl)cc3)cc21 | 12.5 | > 100 | –
6 | Cc1ccccc1-c1ccc2c(c1)N(C)C(=O)[C@@H](NC(=O)c1n[nH]c(Cc3ccccc3)n1)CO2 | 82.7 | > 100 | –
7 | CN1C(=O)[C@@H](NC(=O)c2n[nH]c(Cc3ccccc3)n2)COc2ccc(-c3ccccc3-c3ccccc3)cc21 | > 100 | > 100 | –
8 | CN1C(=O)[C@@H](NC(=O)c2n[nH]c(Cc3ccccc3)n2)COc2ccc(-c3ccco3)cc21 | 3.8 | > 100 | –
9 | CN1C(=O)[C@@H](NC(=O)c2n[nH]c(Cc3ccccc3)n2)COc2ccc(-c3ccoc3)cc21 | 3.4 | > 100 | –
10 | Cc1ccc(-c2ccc3c(c2)N(C)C(=O)[C@@H](NC(=O)c2n[nH]c(Cc4ccccc4)n2)CO3)cc1 | 10.9 | > 100 | –
11 | COc1cccc(-c2ccc3c(c2)N(C)C(=O)[C@@H](NC(=O)c2n[nH]c(Cc4ccccc4)n2)CO3)c1 | 3 | > 100 | –
12 | CN1C(=O)[C@@H](NC(=O)c2n[nH]c(Cc3ccccc3)n2)COc2ccc(-c3cccc(-c4ccccc4)c3)cc21 | 27.3 | > 100 | –
13 | Cc1cccc(-c2ccc3c(c2)N(C)C(=O)[C@@H](NC(=O)c2n[nH]c(Cc4ccccc4)n2)CO3)c1 | 14.1 | > 100 | –
14 | CN1C(=O)[C@@H](NC(=O)c2n[nH]c(Cc3ccccc3)n2)COc2ccc(-c3ccccc3)cc21 | 8.3 | > 100 | –
